Assay results as given in US5939403A, “Keratan sulfate oligosaccharide fraction and pharmaceutical containing the same” (Seikagaku Corporation, priority 1994, dated 1999).
Where a name gives a salt, the structure may show the parent alone.

Tests used:
papain-induced arthritis [1] = test: Papain-induced bilateral arthritis model, intra-articular administration (volume of synovial fluid); assay type: in vivo, Japanese white rabbits (female); details: for Volume of Synovial Fluid: 7 days, n = 8, p < 0.05, control 729, normal 437
Procedure: (§1) The anti-inflammatory effect of the keratan sulfate oligosaccharide with rabbits of the papain-induced arthritis model was examined using the volume of synovial fluid as an indication.
Into the articular cavity of both knee joint of Japanese white rabbits (female) of 3 kg weight, 150 μl of the saline solution of papain (1%) was injected to prepare the arthritis model. One day after injecting papain, 150 μl of the PBS solution of the purified keratan sulfate tetrasaccharide (I) (1% solution; 1.5 mg/joint) which was prepared in Example 1 was injected into the articular cavity of the left joint (hereinafter referred to as "the keratan sulfate tetrasaccharide (I) administered foot"), and 150 μl of PBS was injected into that of the right joint (hereinafter referred to as "the keratan sulfate tetrasaccharide (I) unadministered foot"). Hereinafter the rabbits subjected to administration of the keratan sulfate tetrasaccharide (I) are referred to as "the administered group". And the rabbits subjected to the papain injection only (hereinafter referred to as the control group) and the normal rabbits not subjected to the papain injection (hereinafter referred to as the normal group) were also examined in the same manner hereinafter.
Seven days after the injection, the blood was drawn from the auricular artery, and plasma containing heparin was separated. After drawing the blood, the rabbits were anatomized and the both knee joint were separated. The articular cavity was washed with 2 ml of saline three times to recover the synovial fluid. The calcium concentrations in the plasma and the recovered synovial fluid were determined, and the volume of synovial fluid was calculated from the following formula.
Volume of Synovial Fluid (ul/articulation)=Amount of Calcium in Recovered
Synovial Fluid (μg/articulation)/Concentration of Calcium in Plasma
In the table, "n" represents the number of rabbits in each group used in the experiment.

papain-induced arthritis [2] = test: Papain-induced bilateral arthritis model, intramuscular administration (volume of synovial fluid); assay type: in vivo, Japanese white rabbits (female); details: 0.5 mg/kg intramuscular
Procedure: as §1
Into the articular cavity of both knee joint of Japanese white rabbits (female) of 3 kg weight, 150 μl of the saline solution of papain (1%) was injected to prepare the arthritis model. […]
Seven days after the injection, the blood was drawn from the auricular artery, and plasma containing heparin was separated. […] The calcium concentrations in the plasma and the recovered synovial fluid were determined, and the volume of synovial fluid was calculated from the following formula. […]
The arthritis model was prepared by the method described in (1-1), and one day after injecting papain, 150 μl of the PBS solution of the purified keratan sulfate tetrasaccharide (I) (1% solution; 0.5 mg/kg weight) which was prepared in Example 1 was injected into the hip muscle of the left side (hereinafter referred to as "the keratan sulfate tetrasaccharide (I) administered group"). […] Seven days after the injection, the volume of synovial fluid was calculated in the same manner as in (1-1).

[3] = test system: mesenteric lymph node and submandibular lymph node; test: Cell differentiation induction: staining concentration of lymph node sections (HE staining); assay type: in vivo, MRL-lpr/lpr mice; details: four weeks
Procedure: The PBS solution of the purified keratan sulfate disaccharide (III) which was prepared in Example 1 described above at a dose of 1 mg/kg, 5 mg/kg, or 25 mg/kg weight (hereinafter referred to as the 1 mg/kg administered group, the 5 mg/kg administered group, and the 25 mg/kg administered group, respectively), and PBS as the control (hereinafter sometimes referred to as the control group) was intramuscularly injected, respectively, to the femoral region of MRL-lpr/lpr mice seven times a week for four weeks. After that, the mice were subjected to anatomization to prepare the section specimens (HE staining) of mesenteric lymph node and submandibular lymph node. The staining concentrations per unit area of the specimens were analyzed by an image analyzer (PIAS). In the undifferentiated cells, the staining concentration per unit area is low because proportion of the cytoplasm is high and the nuclei is stained thinly. In the differentiated cells, the staining concentration per unit area is high because proportion of the nuclei is high and it is stained thickly.
The results of the analysis of mesenteric lymph nodes and submandibular lymph nodes are shown in FIG. 17 and FIG. 18 with the standard errors, respectively. In the figures, ** represents that it has the significant difference with p<0.01 (wherein "p" means a level of significance by the Bonferroni multiple comparative test). […]

submandibular lymph node [4] = test: Apoptosis induction: TdT-mediated nick end labeling of submandibular lymph node; assay type: in vivo, MRL-lpr/lpr mice; details: four weeks
Procedure: The PBS solution of the purified keratan sulfate disaccharide (III) which was prepared in Example 1 described above at a dose of 1 mg/kg, 5 mg/kg, or 25 mg/kg weight (hereinafter referred to as the 1 mg/kg administered group, the 5 mg/kg administered group, and the 25 mg/kg administered group, respectively), and PBS as the control (hereinafter sometimes referred to as the control group) was intramuscularly injected, respectively, to the femoral region of MRL-lpr/lpr mice seven times a week for four weeks. After that, the mice were subjected to anatomization to prepare the section specimens of submandibular lymph node (stained by the method of Gavrieli et al.; Terminal deoxynucleotidyl transferase (TdT)--mediated nick end labeling method; (J. Cell Biol., 119, 493-501 (1992))). In this staining method, apoptosis induced cells can be detected by detecting fragmented DNA ends. The specimens prepared was observed by a light microscope to determine the number of stained cells (the apoptosis induced cells; hereinafter sometimes referred to as the apoptosis cells) per unit area. In the figure, * and ** represent that they have the significant difference with p<0.05 and p<0.01, respectively (wherein "p" means a level of significance by the Bonferroni multiple comparative test). In each group, six mice were used.

submandibular lymph node [5] = test: Observation of apoptic body in submandibular lymph node sections (HE staining); assay type: in vivo, MRL-lpr/lpr mice; details: any dose (1, 5, 25 mg/kg i.m.), four weeks

Structure (SMILES)	Volume of Synovial Fluid (papain-induced arthritis [1]; Administered Foot, 1.5 mg/joint intra-articular, SD 147)	Volume of Synovial Fluid (papain-induced arthritis [1]; Unadministered Foot, 1.5 mg in other joint, SD 130)	volume of synovial fluid (result in words) (papain-induced arthritis [1]; intra-articular, bilateral model)	volume of synovial fluid (result in words) (papain-induced arthritis [2]; bilateral model)	Volume of Synovial Fluid (papain-induced arthritis [2]; 7 days, n = 12, SD 65.8, p < 0.01, control 729, normal 437)	staining concentration per unit area (FIG. 17, FIG. 18) ([3]; 5 mg/kg and 25 mg/kg i.m., p<0.01)	staining concentration per unit area (FIG. 17, FIG. 18) ([3]; any dose (1, 5, 25 mg/kg i.m.))	number of the apoptosis cells (FIG. 22) (submandibular lymph node [4]; 5 mg/kg i.m.)	number of the apoptosis cells (FIG. 22) (submandibular lymph node [4]; any dose (1, 5, 25 mg/kg i.m.))	existence of the apoptic body (submandibular lymph node [5])
CC(=O)N[C@H]1[C@H](O[C@H]2[C@@H](O)[C@@H](COS(=O)(=O)O)O[C@@H](O[C@H]3[C@H](O)[C@@H](NC(C)=O)C(O)O[C@@H]3COS(=O)(=O)O)[C@@H]2O)O[C@H](COS(=O)(=O)O)[C@@H](O[C@@H]2O[C@H](COS(=O)(=O)O)[C@H](O)[C@H](O)[C@H]2O)[C@@H]1O (stereo partly drawn) [keratan sulfate tetrasaccharide (I), Gal(6S)β1-4GlcNAc(6S)β1-3Gal(6S)β1-4GlcNAc(6S)]	530 µL	537 µL	significantly less than that in the control group	significantly less than that in the control group	561 µL	–	–	–	–	–
CC(=O)N[C@H]1C(O)O[C@H](COS(=O)(=O)O)[C@@H](O[C@@H]2O[C@H](COS(=O)(=O)O)[C@H](O)[C@H](O)[C@H]2O)[C@@H]1O (stereo partly drawn) [keratan sulfate disaccharide (III), Gal(6S)β1-4GlcNAc(6S)]	–	–	–	–	–	the staining concentrations increased significantly compared with the control group	an increase in the staining concentration per unit area (decrease in relative lightness) was observed	the number of the apoptosis cells increased significantly to the control group	an increase in the number of the apoptosis cells was observed	the scattering of the apoptic body was observed
